Where “and” joins values, the source holds several entries; their conditions need not be identical. Identical values can stand only once. Entries after “also recorded” stand apart in the source; their conditions may differ.
Experiments:
pupillary diameter = experiment: Pupillary diameter measurement, rabbit paracentesis model; format: in vivo, Rabbit (New Zealand); conditions: for Pupillary diameter T2: −5 min: 5 min before the first paracentesis; for Pupillary diameter T2: −5 min / Pupillary diameter T3: +115 min / Pupillary diameter T1: −180 min: raw data per eye; for Pupillary diameter T3: +115 min: 5 min before the second paracentesis; for Pupillary diameter T1: −180 min: basal; for Mean (mm) Δ(T3 − T1) of pupillary diameter: group mean, n=8 eyes
[1] = system: iris and conjunctival vessels, anterior chamber; experiment: Clinical evaluation by slit lamp (clinical score), rabbit paracentesis model; format: in vivo, Rabbit (New Zealand); set-up: key to Clinical Score −180 min / Clinical Score −5 min / Clinical Score +115 min: 0=normal; 1=discrete dilatation of iris and conjunctival vessels; 2=moderate dilatation of iris and conjunctival vessels; 3=intense iridal hyperemia with flare in the anterior chamber; 4=intense iridal hyperemia with flare in the anterior chamber and presence of fibrinous exudates; conditions: for Clinical Score −5 min: 5 min before the first paracentesis; for Clinical Score −5 min / Clinical Score +115 min / Clinical Score −180 min: raw data per eye; for Clinical Score +115 min: 5 min before the second paracentesis; for Clinical Score −180 min: basal
[2] = system: PGE2 in the aqueous humor; experiment: Prostaglandin E2 (PGE2) measurement in aqueous humor, rabbit paracentesis model; format: in vivo, Rabbit (New Zealand); conditions: for PGE2 level in aqueous humor, Mean: second paracentesis, group mean
Experimental: (§1) Each rabbit was placed in a restraint device and tagged with the alphanumeric code. The formulations were instilled (50 μl) into the conjunctival sac of both eyes 180, 120, 90 and 30 min before the first paracentesis; then 15, 30, 90 min after the first paracentesis. To perform the first paracentesis the animals were anaesthetized by intravenous injection of 5 mg/kg Zoletil® (Virbac; 2.5 mg/kg tiletamine HCl and 2.5 mg/kg zolazepam HCl) and one drop of local anesthetic (Novesina®, Novartis) was administered to the eye. Anterior chamber paracentesis was performed with a 26 G needle attached to a tuberculin syringe; the needle was introduced into the anterior chamber through the cornea, taking care not to damage the tissues. Two hours after the first paracentesis, the animals were sacrificed with 0.4 ml Tanax® (Intervet International B.V.) and the second paracentesis was performed. About 100 μl of aqueous humor were removed at the second paracentesis. Aqueous humor was immediately split in four aliquots and stored at −80° C. until analysis. Then both eyes were enucleated and the iris-ciliary body was carefully excised, placed in polypropylene tubes, and stored at −80° C. until analysis.
For the quantitative determination of PGE2 in the aqueous humor we used the PGE2 Immunoassay kit (R&D Systems; Cat. No. KGE004; Lot. No. 240010). Eleven microliters or 16 μl of aqueous humor were diluted to 110 μl or 160 μl with the calibrator diluent solution provided with the kit. One hundred microliters of samples and of standards were load into a 96-well plate and recorded in a plate layout. Samples were treated following the assay procedure described in the kit. A microplate reader (GDV, Italy; model DV 990 B/V6) set at 450 nm (wavelength correction at 540 nm) was used for making the calibration and analyzing the samples.
(§2) Pupillary diameter, PGE2, protein, PMN, and MPO were expressed as mean±SEM. Statistical analysis was performed using one way ANOVA followed by a Newman-Keuls post hoc test. Clinical score was expressed as % of eyes and the statistical analysis was performed using Kruskal-Wallis followed by a Dunn post hoc test. P<0.05 was considered statistically significant in both cases. Prism 4 software (GraphPad Software, Inc.) was used for the analysis and graphs.

[3] = system: protein concentration in the aqueous humor; experiment: Protein measurement in aqueous humor, rabbit paracentesis model; format: in vivo, Rabbit (New Zealand); conditions: for Protein level in aqueous humor, Mean / Protein level in aqueous humor, raw data: second paracentesis; for Protein level in aqueous humor, Mean: group mean; for Protein level in aqueous humor, raw data: per eye
Experimental: as §1
For protein concentration determination in the aqueous humor we used the Protein Quantification Kit (Fluka; Cat. No. 77371; Lot. No. 1303129). Five microliters of aqueous humor were diluted to 100 μl with water. Twenty microliters of samples and of standards were load into a 96-well plate and recorded in a plate layout. Samples were treated following the assay procedure described in the kit. A microplate reader (GDV, Italy; model DV 990 B/V6) set at 670 nm was used for making the calibration and analyzing the samples.
as §2

[4] = system: MPO activity in iris-ciliary body; experiment: Myeloperoxidase (MPO) activity in iris-ciliary body, rabbit paracentesis model; format: in vivo, Rabbit (New Zealand); conditions: for MPO activity in iris-ciliary body: individual samples collected after the second paracentesis; for MPO activity in iris-ciliary body, Mean: after the second paracentesis, group mean
Experimental: as §1
The activity of MPO was measured as previously described by Williams et al.[5] The iris-ciliary bodies were carefully dried, weighed and immersed in 1 ml of hexa-decyl-trimethyl-ammonium bromide solution. Then, the samples were sonicated for 10 sec on ice by a ultrasound homogenizer (HD 2070, Bandelin electronic), freeze-thawed three times, sonicated for 10 sec and centrifuged at 14,000 g for 10 min to remove cellular debris. An aliquot of the supernatant (40-200 μl) was diluted to 3 ml with the o-dianisidine 2HCl/H2O2 solution. The change in absorbance at 460 nm was continuously monitored for 5 min by a spectrophotometer (UV/Vis Spectrometer Lambda EZ 201; Perkin Elmer). The slope of the line (Δ/min) was determined for each sample and used to calculate the number of units of MPO in the tissue as follows:
Values were expressed as units of MPO/g of tissue.
as §2

[5] = system: intraocular pressure (IOP); experiment: Intraocular pressure in New Zealand White rabbits, topical dosing four times daily; format: in vivo
Experimental: (§3) On Days 1-31, animals received daily topical doses of the appropriate test article into the right eye. Animals were dosed four times per day, with doses administered 2 hours apart. Doses were administered using a calibrated 50-μL pipette. The eyelids were held close for 10 seconds immediately following dosing. The time of each dose administration was recorded.
Intraocular pressure (“IOP”) was determined for both eyes of each animal on Days 3, 5, 10, 12, 16, 18, 22, 24, 26, 30, and 32. IOP was evaluated with a Medtronic Solan, Model 30 classic pneumatonometer. Proparacaine hydrochloride 0.5% (1 drop) was delivered to each eye prior to IOP measurement. IOP was measured on Monday. Wednesday, and Friday of each week. A two-point diurnal curve was established: IOP was recorded at 8 a.m. and 12 p.m. on Day 3, and at 8 a.m. and 2 p.m. on later days, with a ±1 hour range for each of these times. The time of the measurements was recorded.
Descriptive statistics were prepared for IOP data of each treatment group (left and right eyes separately) at each measurement interval. The statistics included the number of observations (“N”) mean, standard deviation (“STD”), and standard error (“SEM”). Statistical analyses were conducted on IOP results using Statistical Analysis Systems (SAS Institute. Inc., Cary, N.C. V8.0). Parameters were evaluated using analysis of variance/GLM Procedure followed by Tukey's Standardized Range Test (Tukey, 1985) for post hoc comparisons of group means. The level of significance was set at a probability of p<0.05 for all statistical procedures. Group IOP means were compared at each interval, with left and right eyes compared separately.

[6] = system: New Zealand White rabbits; experiment: Mortality/morbidity in New Zealand White rabbits, topical dosing four times daily; format: in vivo
Experimental: as §3
Animals determined to be moribund were euthanized with an intravenous injection of commercial euthanasia solution.

rabbit eyes = experiment: Ophthalmic observations (slit lamp, McDonald Shadduck scores) in New Zealand White rabbits; format: in vivo; set-up: key to Ophthalmic Observation (Slit-Lamp): AN = Appeared normal
Experimental: Prior to placement on study, each animal underwent a pre-treatment ophthalmic examination (slit lamp and indirect ophthalmoscopy). Observations were scored according to the McDonald Shadduck system and recorded using a standardized data collection sheet.
as §3
Ophthalmic examinations (slit lamp) were performed prior to the first dosing on Days 5, 12, 22, 26, and 33. Ocular findings were scored according to the McDonald Shadduck system and recorded using a standardized data collection sheet.

[7] = 0.1% formulation, +115 min, N=8 eyes
[8] = 0.1% formulation, −5 min, N=8 eyes
[9] = Group A, 0.1% (0.05 mg/dose) 4 x daily, individual rabbits
[10] = Group A, 0.1%, treated right eye, individual animals

Compound: C[C@@H]1C[C@H]2[C@@H]3CCC4=CC(=O)C=C[C@]4(C)[C@@]3(F)[C@@H](O)C[C@]2(C)[C@@]1(O)C(=O)CO [Dex, dexamethasone, reference compound]
- Pupillary diameter T2: −5 min (pupillary diameter; 0.1% formulation): 5.5 mm and 6.5 mm and 6.0 mm and 7.0 mm and 7.5 mm
- Pupillary diameter T3: +115 min (pupillary diameter; 0.1% formulation): 5.5 mm and 6.0 mm and 4.5 mm and 5.0 mm and 6.5 mm
- Pupillary diameter T1: −180 min (pupillary diameter; 0.1% formulation): 6.0 mm and 7.0 mm and 5.5 mm and 6.5 mm
- Mean (mm) Δ(T3 − T1) of pupillary diameter (pupillary diameter; 0.1% formulation): −0.8 mm
- Clinical Score −5 min ([1]; 0.1% formulation): 0 and 1
- Clinical Score +115 min ([1]; 0.1% formulation): 1 and 3
- Percentage of eyes with clinical score 1 [1, 7]: 75%
- Percentage of eyes with clinical score 3 [1, 7]: 25%
- Clinical Score −180 min ([1]; 0.1% formulation): 0
- Percentage of eyes with clinical score 0 [1, 8]: 75%
- Percentage of eyes with clinical score 1 [1, 8]: 25%
- Percentage of eyes with clinical score 0 ([1]; 0.1% formulation, −180 min (basal), N=8 eyes): 100%
- PGE2 level in aqueous humor, Mean ([2]; 0.1% formulation): 2.263 ng/mL
- Protein level in aqueous humor, Mean ([3]; 0.1% formulation): 33.457 mg/mL
- Protein level in aqueous humor, raw data ([3]; 0.1% formulation): 31.31 mg/mL and 31.81 mg/mL and 35.95 mg/mL and 37.15 mg/mL and 32.12 mg/mL and 32.40 mg/mL
- MPO activity in iris-ciliary body ([4]; 0.1% Dex): 1.32 Unit/g
- MPO activity in iris-ciliary body, Mean ([4]; 0.1% formulation): 0.618 MPO Unit/g
- Mean IOP of the group compared with corresponding eyes of other groups ([5]; 0.1% dexamethasone (Group A), on several days, one or both eyes, p<0.05): significantly higher
- Course of mean IOP after treatment began ([5]; left and right eyes, dexamethasone 0.1% (Group A), BOL-303242-X 10, 5, 1 mg/g (Groups B-D), four times daily): increased sharply
- Mortality (rabbits that died or were euthanized between Days 11 and 33) ([6]; 0.05 mg/dose (0.1% dexamethasone suspension or 1 mg/g BOL-303242-X), right eye four times daily, Days 1-31): Six of ten
- Day of Death (day euthanized or found dead) [6, 9]: 25 (2×) and 27 (2×) and 23 and 13
- Recorded Notes on death [6, 9]: Euthanized. Very sick/poor health; left (untreated) eye; also recorded: Euthanized due to severe profuse hemorrhagic diarrhea; also recorded: Found dead. No rigor mortis present
- Mortality rate ([6]; dexamethasone suspension 0.05 mg/dose four times daily up to 31 days): 6 deaths per 10 rabbits
- Conjunctival congestion Score (rabbit eyes; [10]): 1
- Ophthalmic Observation (Slit-Lamp) (rabbit eyes; [10]): AN
- Ophthalmic observation associated with unilateral topical instillation (rabbit eyes; four times daily up to 31 days, BOL-303242-X 0.05, 0.25, or 0.5 mg/dose, dexamethasone 0.05 mg/dose): sporadic mild conjunctival congestion

Compound: CC(C(=O)O)c1ccc(-c2ccccc2)c(F)c1 (stereo not shown) [F, flurbiprofen]
- Pupillary diameter T2: −5 min (pupillary diameter; 0.03% formulation): 6.0 mm and 6.5 mm and 7.0 mm and 5.5 mm
- Pupillary diameter T3: +115 min (pupillary diameter; 0.03% formulation): 4.0 mm and 3.5 mm and 5.5 mm and 5.0 mm and 4.5 mm and 6.0 mm
- Pupillary diameter T1: −180 min (pupillary diameter; 0.03% formulation): 5.0 mm and 7.0 mm and 6.0 mm and 5.5 mm
- Mean (mm) Δ(T3 − T1) of pupillary diameter (pupillary diameter; 0.03% formulation): −0.9 mm
- Clinical Score −5 min ([1]; 0.03% formulation): 0
- Clinical Score +115 min ([1]; 0.03% formulation): 2
- Percentage of eyes with clinical score 2 ([1]; 0.03% formulation, +115 min, N=8 eyes): 100%
- Clinical Score −180 min ([1]; 0.03% formulation): 0
- Percentage of eyes with clinical score 0 ([1]; 0.03% formulation, −5 min, N=8 eyes): 100%
- Percentage of eyes with clinical score 0 ([1]; 0.03% formulation, −180 min (basal), N=8 eyes): 100%
- PGE2 in aqueous humor, statistical significance versus CTR ([2]; 0.03% formulation, p<0.05): statistically significant versus CTR
- PGE2 level in aqueous humor, Mean ([2]; 0.03% formulation): 1.189 ng/mL
- Protein in aqueous humor, statistical significance vs CTR ([3]; 0.03% formulation, p<0.001): statistical significance
- Protein level in aqueous humor, Mean ([3]; 0.03% formulation): 20.910 mg/mL
- Protein level in aqueous humor, raw data ([3]; 0.03% formulation): 20.78 mg/mL and 28.80 mg/mL and 23.41 mg/mL and 20.21 mg/mL and 17.53 mg/mL and 15.12 mg/mL and 20.52 mg/mL
- MPO activity in iris-ciliary body ([4]; 0.03% F): 1.27 Unit/g
- MPO activity in iris-ciliary body, Mean ([4]; 0.03% formulation): 0.906 MPO Unit/g

Reference: US20120316199A1, “COMPOSITIONS AND METHODS FOR TREATING, CONTROLLING, REDUCING, OR AMELIORATING INFLAMMATORY PAIN” (priority 2011, published 2012)
